Changes are numbered by the printed parent chain.

For one assay, the target named is T1, SLC7A9-SLC3A1 complex (Homo sapiens, UniProt P82251).
T1 construct: heterodimeric light/heavy chain transporter, dimer of heterodimers; ectopically expressed in HEK293T cells; with Amino acid transporter heavy chain SLC3A1
T1 sequence (P82251 1-487): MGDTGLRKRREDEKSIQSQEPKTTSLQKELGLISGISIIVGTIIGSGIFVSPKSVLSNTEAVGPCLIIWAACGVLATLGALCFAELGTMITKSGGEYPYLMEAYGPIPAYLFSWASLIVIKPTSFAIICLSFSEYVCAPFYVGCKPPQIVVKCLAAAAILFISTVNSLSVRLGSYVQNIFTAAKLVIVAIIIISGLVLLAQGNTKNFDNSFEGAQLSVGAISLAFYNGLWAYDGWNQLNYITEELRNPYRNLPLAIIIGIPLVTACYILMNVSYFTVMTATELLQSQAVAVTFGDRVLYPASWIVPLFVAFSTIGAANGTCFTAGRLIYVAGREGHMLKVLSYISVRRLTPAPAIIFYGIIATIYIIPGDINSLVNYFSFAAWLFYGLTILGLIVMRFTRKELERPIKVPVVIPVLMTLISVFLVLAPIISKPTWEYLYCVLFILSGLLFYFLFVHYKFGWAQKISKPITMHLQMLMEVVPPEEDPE
T1 sequence (Q07837 1-685 partner): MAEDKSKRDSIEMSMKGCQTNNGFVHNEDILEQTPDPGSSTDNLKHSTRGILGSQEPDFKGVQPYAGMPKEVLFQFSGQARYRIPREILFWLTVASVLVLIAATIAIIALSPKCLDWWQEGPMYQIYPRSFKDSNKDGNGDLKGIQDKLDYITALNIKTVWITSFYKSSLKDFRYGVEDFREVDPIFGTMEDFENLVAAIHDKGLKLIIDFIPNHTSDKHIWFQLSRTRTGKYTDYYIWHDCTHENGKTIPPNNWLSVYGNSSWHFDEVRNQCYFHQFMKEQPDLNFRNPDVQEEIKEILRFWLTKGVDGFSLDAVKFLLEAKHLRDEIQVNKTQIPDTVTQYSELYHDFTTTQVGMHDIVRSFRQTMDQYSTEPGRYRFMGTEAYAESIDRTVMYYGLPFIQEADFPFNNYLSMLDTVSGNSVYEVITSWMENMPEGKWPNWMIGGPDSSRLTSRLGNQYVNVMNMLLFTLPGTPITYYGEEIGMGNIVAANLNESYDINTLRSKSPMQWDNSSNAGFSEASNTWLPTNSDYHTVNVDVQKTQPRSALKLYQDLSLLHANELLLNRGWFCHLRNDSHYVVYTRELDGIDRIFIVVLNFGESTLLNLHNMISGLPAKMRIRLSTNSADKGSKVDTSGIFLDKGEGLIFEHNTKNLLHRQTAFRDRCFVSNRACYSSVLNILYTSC
The assay is described as follows: microscale thermophoresis. Particulars: read-out: binding affinity. A general note: Microscale thermophoresis detects binding through changes in fluorescence in a small temperature gradient.

Assay [1] has as its target T2, SLC7A13-SLC3A1 complex (Homo sapiens, UniProt Q8TCU3, S219A).
T2 construct: heterodimeric light/heavy chain transporter, dimer of heterodimers; ectopically expressed in HEK293T / HEK293 cells (Expi293 for cryo-EM); with Amino acid transporter heavy chain SLC3A1
T2 sequence (Q8TCU3 1-470 S219A): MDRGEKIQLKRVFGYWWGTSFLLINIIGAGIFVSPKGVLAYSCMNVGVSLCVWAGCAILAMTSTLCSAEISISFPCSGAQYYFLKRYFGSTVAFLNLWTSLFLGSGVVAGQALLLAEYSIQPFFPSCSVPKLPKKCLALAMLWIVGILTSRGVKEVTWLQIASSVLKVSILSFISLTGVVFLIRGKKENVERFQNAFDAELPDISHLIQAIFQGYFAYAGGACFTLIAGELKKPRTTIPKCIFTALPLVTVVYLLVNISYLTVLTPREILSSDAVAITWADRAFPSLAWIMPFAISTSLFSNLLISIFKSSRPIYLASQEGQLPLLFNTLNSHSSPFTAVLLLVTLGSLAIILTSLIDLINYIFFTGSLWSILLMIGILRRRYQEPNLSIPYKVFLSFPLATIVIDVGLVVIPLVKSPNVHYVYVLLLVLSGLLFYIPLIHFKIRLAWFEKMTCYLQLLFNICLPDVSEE
T2 sequence (Q07837 1-685 partner): T1 sequence (Q07837 1-685 partner)
Nature of the assay: [2H]-cystine uptake, isotope tracking. The assay is classed as cell-based. Particulars: HEK293 cells transfected with SLC7A13 and SLC3A1; labelled compound.

For assay [2], the target named is T3, SLC7A13-SLC3A1 complex (Homo sapiens, UniProt Q8TCU3, T225A).
T3 construct: heterodimeric light/heavy chain transporter, dimer of heterodimers; ectopically expressed in HEK293T / HEK293 cells (Expi293 for cryo-EM); with Amino acid transporter heavy chain SLC3A1
T3 sequence (Q8TCU3 1-470 T225A): T2 sequence (Q8TCU3 1-470 S219A) with A219S, T225A
T3 sequence (Q07837 1-685 partner): T1 sequence (Q07837 1-685 partner)
The assay is described as follows: [2H]-cystine uptake, isotope tracking. The format is cell-based. Particulars: HEK293 cells transfected with SLC7A13 and SLC3A1; labelled compound.

Assay [3] has as its target T4, SLC7A13-SLC3A1 complex (Homo sapiens, UniProt Q8TCU3).
T4 construct: heterodimeric light/heavy chain transporter, dimer of heterodimers; ectopically expressed in HEK293T / HEK293 cells (Expi293 for cryo-EM); with Amino acid transporter heavy chain SLC3A1
T4 sequence (Q8TCU3 1-470): T2 sequence (Q8TCU3 1-470 S219A) with A219S
T4 sequence (Q07837 1-685 partner): T1 sequence (Q07837 1-685 partner)
The assay is described as follows: microscale thermophoresis. The note with it: read-out: binding affinity.

Take `N[C@@H](CSSC[C@H](N)C(=O)O)C(=O)O` [cystine]: the Kd on SLC7A9-SLC3A1 complex is 107 ± 33.5 µM; on SLC7A13-SLC3A1 complex [3] it was 112 ± 44 µM. The cystine uptake result at SLC7A13-SLC3A1 complex [1] and on SLC7A13-SLC3A1 complex [2] was “mutation in any of the seven SLC7A13-specific residues to alanine significantly reduced SLC7A13’s transporter activities” each time.

(Values after paper PMC12959773 (Protein & Cell, 2025).)
